In patent publication EP0167245B1, “Anti-arrhythmic agents” (AMERICAN HOME PRODUCTS CORPORATION, priority 1984, dated 1986):

Tested on: rabbit aortic smooth muscle
Test: Ca+2 antagonism: relaxation of KCl-depolarised rabbit thoracic aorta strips
Assay type: cell-based
Settings: 20 min, 100 mM KCl contracted aortic strips; for inhibition at 10 µM: Oryctolagus cuniculus, test compound 1 x 10^-5 M, 20 min after addition, mean of two experiments, read-out: percent relaxation (P. R.)
Description: Here, transverse strips (10 mm x 2.5 mm) from the thoracic aorta were cut and suspended vertically in a jacketed (37 °C - 50 ml volume) organ bath in physiological saline solution (PSS) aerated with 95 % Oz/5 % CO9. The composition of PSS was as follows (mM) : NaCI 112, KCI 5, NaHC03 25, KH2PO4 1, MgS04 1.2, CaCI2 2.5, dextrose 10. The lower end of each tissue strip was attached to a fixed post and the upper end to a Statham UC-4 transducer. Changes in force development were recorded on a Beckman Dynograph Polygraphic Recorder.
Following equilibration, the muscles were contracted in a depolarizing solution of PSS in which 100 mM KCI was substituted for an equimolar concentration of NaCI. Following attainment of steady-state isometric force (20 min.), the test compound was added to afford a final concentration of 1 x 10-^5 M. The inhibitory effect, expressed as percent relaxation, was determined from the mean of two experiments twenty minutes after the addition of the compound being tested.
The following examples illustrate the preparation of a representative number of compounds of this invention. After each example, the Ca^2+ antagonist activity of the compound is presented in terms of percent relaxation (P. R.) at 10-^5 M concentration unless indicated otherwise. Similarly, the percentage mortality of standard experimental test animals upon coronary ligation (C. L.) is presented for comparison with the control mortality rate of 73 percent of animals receiving vehicle alone.

Row | SMILES | inhibition at 10 µM [%] | percent relaxation (P. R.) (test compound at 10-^s M as printed)
1 | COc1cc(OC)cc(N(C(C)C)S(=O)(=O)CCCN(C)CCc2ccc(OC)c(OC)c2)c1 [Example 1, N-(3,5-Dimethoxyphenyl)-3-[(2-(3,4-dimethoxyphenyl)ethyl]-methylamino]-N-(1-methylethyl)-1-prop-anesulphonamide] | 90 | 27
2 | COc1ccc(CCN(C)CCCS(=O)(=O)N(c2ccc(OC)c(OC)c2)C(C)C)cc1OC [Example 2, N-(3,4-Dimethoxyphenyl)-3-[[2-(3,4-dimethoxyphenyl)ethyl]methylaminol]-N-(1-methylethyl)-1-prop-anesulphonamide] | 74 | –
3 | COc1ccc(CCN(C)CCCS(=O)(=O)N(c2cc(OC)c(OC)c(OC)c2)C(C)C)cc1OC [Example 3, 3-[[2-(3,4-Dimethoxyphenyl)ethyl]methylamino]-N-(1-methylethyl)-N-(3,4,5-trimethoxyphenyl)-1-prop-anesulphonamide] | 62 | –
4 | COc1ccc(CCN(C)CCCS(=O)(=O)N(c2cc(Cl)cc(Cl)c2)C(C)C)cc1OC [Example 4, N-(3,5-Dichlorophenyl)-3-[[2-(3,4-dimethoxyphenyl)ethyl]methylamino]-N-(1-methylethyl)-1-propanesulp-honamide] | 86 | –
5 | COc1ccc(CCN(C)CCCS(=O)(=O)Nc2cccc(C(F)(F)F)c2)cc1OC [Example 5, N-(3-Trifluoromethylphenyl)-3-[[2-(3,4-dimethoxyphenyl)-ethyl)methylamino]-1-propanesulphonamide] | 51 | –
6 | COc1ccc(CCN(C)CCCS(=O)(=O)N(c2cccc(C(F)(F)F)c2)C(C)C)cc1OC [Example 6, N-(3-Trifluoromethylphenyl)-3-[[2-(3,4-dimethoxyphenyl)ethyl]methylamino]-N-(1-methylethyl)-1-prop-anesulphonamide] | 78.5 | –
7 | COc1ccc(CCN(C)CCCN(C(C)C)S(=O)(=O)c2cccc(C(F)(F)F)c2)cc1OC [Example 7, N-[3-[[2-(3,4-Dimethoxyphenyl)ethyl]methylamino]propyl]-N-(1-methylethyl)-3-(trifluoromethyl) benzenesulphonamide] | 86.6 | –
8 | COc1ccc(CCN(C)CCCCN(C(C)C)S(=O)(=O)c2ccc(Cl)c(Cl)c2)cc1OC [Example 14, 3,4-Dichloro-N-(4-[[2-(3,4-dimethoxyphenyl)ethyl]methylamino]butyl]-N-(1-methylethyl) benzenesulphonamide] | 68 | –
9 | COc1ccc(CCN(C)CCCN(C(C)C)S(=O)(=O)c2ccc(OC)c(OC)c2OC)cc1OC [Example 15, N-[3-[[2-(3,4-dimethoxyphenyl)ethyl]methylamino]propyl]-N-(1-methylethyl)-2.3,4-trimethoxybenzenesul-phonamide] | 80 | –
